# Source: PubChem BioAssay AID2305 (GlaxoSmithKline (GSK), 2010)
# Test system: P. falciparum 3D7 growth, pLDH absorbance
# Test: P. falciparum 3D7 growth inhibition, dose response, strain 3D7 (AID 2305)
row,Compound,IC50 [nM]
1,CCc1c(CCNCCCCCCNCCc2ccc([N+](=O)[O-])cc2)ccc(OC)c1OC,730
2,Cn1c(NC(=O)C2CCC(CNC(=O)c3ccc(O)c(-c4cccc([N+](=O)[O-])c4)c3)CC2)nc2ccccc21 (stereo not given),980
3,O=C(Nc1cccc(CN2CCN(Cc3ccc(O)cc3)CC2)c1)c1cc2ccccc2s1,680
4,O=c1cc(NCCCNCc2[nH]c3cc(Cl)ccc3c2Cl)[nH]c2ccccc12,910
5,Nc1cccc(CNCc2ccc(-c3ccc(-c4nc5ccccc5[nH]4)s3)cc2)c1,570
6,Cc1ccnc(Nc2nc(-c3ccccn3)cs2)c1,1000
7,Cc1cc(C(=O)Nc2ccc3c(c2)CCN3C2CCN(Cc3ccc(O)cc3)C2)no1 (stereo not given),770
8,Oc1ccc2nc(Nc3ccccc3)nc(NCCc3ccccc3)c2c1,150
9,NC(N)=Nc1cccc(NC(=O)Nc2cccc(N=C(N)N)c2)c1,260
10,CC(C)COc1ccc(Cl)cc1Cc1ccc(-c2nc3ccc(CCN4CCCC4)cc3[nH]2)o1,730
11,CCOC(=O)c1ccc(NC(=O)Nc2cccc(-c3cccc(-c4nc5c(C)cccc5[nH]4)c3)c2)cc1,110
12,Cc1cnc(C(=O)Nc2cccc(-c3cccc(-c4nc5c(C)cccc5[nH]4)c3)c2)cn1,580
13,CC(=O)c1ccc2nc[nH]c(=O)c2c1,720
14,COc1ccc2nccc([C@@H](O)CN3CCC(NCc4ccc5nnsc5c4)CC3)c2c1,710
15,NC(N)=NC(=O)Nc1ccc(Cl)c(Cl)c1,1040
16,COc1ccc(-c2ccc(S(=O)(=O)Nc3cc4c(cc3OC(C)C)CCN(C)CC4)cc2)cc1,690
17,COc1ccc2nccc(N3CCC(CCNCc4cc5c(cn4)OCCO5)CC3)c2c1,870
18,CN(C)C(=O)c1ccc(CN(Cc2ccc3c(c2)OCCO3)Cc2ccc3c(c2)OCO3)cc1,180
19,CCCCc1ccc(C(=O)Nc2ccc3nc(N4CCN(C)CC4)cc(C)c3c2)cc1,1100
20,CN(Cc1ccc(NC(=O)CCC2CCN(C(=O)/C=C/c3ccc(Cl)c(Cl)c3)CC2)cc1)C1CCOCC1,1730
21,COc1cc(NC(=O)c2sc(-c3ccc(Cl)cc3)cc2NC(=O)c2cccc(N(C)C)c2)ccc1OCCN1CCCC1,710
22,COc1ccc(S(=O)(=O)N2CCCC(C)C2)cc1N1CCN(C(=O)c2ccc([N+](=O)[O-])o2)CC1 (stereo not given),1250
23,O=C(Nc1ccc(Cl)cc1Cl)N[C@H]1CCN(CCCCCNC(=O)[C@@H]2C[C@H]2c2ccc(Cl)c(Cl)c2)C1,990
24,O=C(NC1CCN(c2ccc(F)cc2[N+](=O)[O-])CC1)c1cccs1,670
25,O=S(=O)(NCCN1CCCC1)c1ccc(-c2cccc(CNCc3ccsc3)c2)s1,900

row,Compound,IC50 [nM]
1,O=C(NCCCCCN1CCC(c2c[nH]c3ccccc23)CC1)c1ccc(-c2cccnc2)cc1,1030
2,CCc1[nH]nc(C(=O)Nc2cccc(N3CCCC3)c2)c1C,1460
3,CC(Cc1ccc(OCCCCOc2ccccc2)cc1)NCCc1ccccc1Cl (stereo not given),180
4,CC(C)c1ccc2oc(-c3ccc(NC(=O)c4ccc([N+](=O)[O-])o4)cc3)nc2c1,340
5,Cc1ccc(Cn2cnc3cc(C(=O)Nc4ccc(-c5ccc(CN(C)C)cc5)cc4)ccc3c2=O)o1,1260
6,CN(C)CCC1CCCc2ccc(NC(=O)Nc3ccc(-c4ccncc4)c4ccccc34)cc21 (stereo not given),1070
7,CCOC(=O)CNC(=O)c1cc(=O)c2ccccc2o1,210
8,COc1ccc(CNC2Cc3ccccc3C2)cc1-c1ccc(OC)c(S(=O)(=O)NCCN2CCCC2)c1,770
9,Cc1[nH]n(-c2cccc(Cl)c2)c(=O)c1-c1ccc(Cl)cc1,930
10,Cc1cccc2[nH]c(-c3ccc(-c4cccc(NC(=O)C(C)CN5CCN(C)CC5)c4)s3)nc12 (stereo not given),750
11,N=C(N)CCN(Cc1ccccc1)c1ccc(Cl)cc1,260
12,Cc1cccc2[nH]c(-c3cccc(-c4ccc(NC(=O)Nc5ccsc5)cc4)c3)nc12,120
13,Cc1[nH]c(C)c(-c2ccc(-c3cccc(OC(F)(F)F)c3)nc2)c(=O)c1Cl,70
14,CC(C)(C)c1ccc(C(=O)Nc2ccc(NC(=O)c3ccc([N+](=O)[O-])o3)cc2)cc1,840
15,Nc1ncc(-c2ccc(Cl)c(Cl)c2)c(N)n1,730
16,CC(C)(C)c1cc(C(=O)Nc2cccnc2)cc(C(=O)Nc2cccnc2)c1,760
17,O=C(Nc1cccc(-c2csc(-c3ccccc3)n2)c1)c1cccs1,800
18,CC1CCN(C(=O)CSc2nc(-c3ccc(C(C)C)cc3)no2)CC1,1350
19,COc1ccc2nccc(N(C)CC3(O)CCN(CCc4ccc5c(c4)NC(=O)CS5)CC3)c2n1,140
20,COc1ccc(C[C@H]2NC[C@H](O)[C@H]2OC(C)=O)cc1,140
21,O=C(Nc1cccc(-c2cc3ccccc3[nH]2)c1)C1CCN(Cc2ccccc2O)CC1,940
22,OC1(c2ccccc2)CCN(Cc2cccc(-c3c[nH]c4nc(NC5CCCC5)ncc34)c2)C1 (stereo not given),910
23,COc1ccccc1C(C)NCC(=O)Nc1cc(C(F)(F)F)ccc1Cl (stereo not given),780
24,CC(=NO)C1=C(O)C(c2ccccc2)N(c2ccccc2)C1=O (stereo not given),700
25,Cc1cc(OCCCNc2nc(NCCc3ccc(O)cc3)nc(N3CCNCC3)n2)c(Cl)c(C)c1Cl,960

row,Compound,IC50 [nM]
1,OC(CNCCCCCCNCC(O)c1ccc(Cl)c(Cl)c1)c1ccc(Cl)c(Cl)c1 (stereo not given),910
2,CCN(CC)CCN(Cc1ccc(-c2ccc(C(F)(F)F)cc2)cc1)C(=O)Cn1c(CCc2ccc(F)c(F)c2F)nc(=O)c2cccnc21,1130
3,CCCCCCNC(=O)C1Cc2c([nH]c3cc(Cl)ccc23)C2(CCN(CCC)CC2)N1 (stereo not given),880
4,CC(C)c1sc(N2CCN(C)CC2)nc1C(=O)NCCc1cccc(Cl)c1,1490
5,Fc1cc(Cl)ccc1Nc1ccnc2cc(-c3ccc(CNCCN4CCOCC4)o3)ccc12,280
6,COc1cc(C(=O)N2N=C(c3c(-c4ccccc4)c4cc(Br)ccc4[nH]c3=O)CC2c2cccc([N+](=O)[O-])c2)cc(OC)c1OC (stereo not given),940
7,Cc1cn(CC(=O)Nc2cccc(-c3cccc(-c4nc5c(C)cccc5[nH]4)c3)c2)c(=O)[nH]c1=O,580
8,O=C(Nc1ccc(F)c(C(F)(F)F)c1)NC1CCN(CCCCCNC(=O)[C@@H]2C[C@H]2c2ccc(Cl)c(Cl)c2)CC1,660
9,Cc1[nH]c(C)c(-c2ccc(OCCOc3ccc(C(F)(F)F)cn3)cc2)c(=O)c1Br,140
10,CCOc1ccc(C2CCN(CCCCNC(=O)c3ccc(NC(=O)c4ccc(Cl)cc4)cc3)CC2)c(OCC)c1,680
11,COc1ccc2nccc(NN=Cc3cccc(C)n3)c2c1,760
12,CC(C)CCn1c(Sc2ccc([N+](=O)[O-])cc2C(F)(F)F)nnc1-c1ccccc1Cl,920
13,Fc1ccc2nc(-c3cccc(-c4ccc(CN5CCN(CCN6CCOCC6)CC5)cc4)c3)[nH]c2c1,310
14,CNCc1ccc2nc(-c3coc(Cc4cc(Cl)ccc4OCC(C)C)n3)[nH]c2c1,840
15,CC(C)Nc1ccc(Nc2ccnc3cc4ccccc4cc23)cc1,140
16,NC(N)=NN=Cc1ccc2ccc3ccccc3c2c1,380
17,Cc1[nH]c(C)c(-c2ccc(-c3ccc(F)cc3)cc2)c(=O)c1Cl,660
18,CN1CCN(c2ccc(CNc3ccc4ncc(-c5ccc(OC(F)(F)F)cc5)n4n3)cc2)CC1,830
19,CS(=O)(=O)Nc1ccc(OCCCCCCOc2ccc(NS(C)(=O)=O)cc2)cc1,490
20,CN(C)C(CNC(=O)c1cc(-c2ccncc2)c(-c2ccc(Cl)c(O)c2)o1)c1ccccc1 (stereo not given),840
21,CC1CCCN(Cc2c(O)ccc3c(=O)c(-c4nc5ccccc5s4)c(N)oc23)C1 (stereo not given),140
22,NCC1CCCN1Cc1cccc(-c2ccc(-c3nc4ccccc4[nH]3)s2)c1 (stereo not given),1040
23,CO/C(=C\C=C/c1cc2cc(Cl)c(Cl)cc2[nH]1)C(=O)NC1CC(C)(C)N(C)C(C)(C)C1,830
24,CCOc1ccc(C(C)NC(=O)c2ccc(OC)c(Br)c2)cc1OCC (stereo not given),710
25,CC1(C)N=C(N)N=C(N)N1OCc1cc2ccccc2cc1CON1C(N)=NC(N)=NC1(C)C,130

row,Compound,IC50 [nM]
1,COc1cc2nc(Nc3ccc4c(c3)OCCO4)nc(N)c2cc1OC,470
2,CN(C)C(=O)CCCn1c(CNCCCNc2cc(=O)c3ccccc3[nH]2)cc2c(Cl)cc(Cl)cc21,1190
3,O=C(Nc1ccc(NC2=NCCN2)cc1)Nc1ccc(NC2=NCCN2)cc1,850
4,Cc1nc(Nc2cc(Cl)ccc2O)nc(Nc2cc(Cl)ccc2O)c1[N+](=O)[O-],30
5,COc1cc(C(=O)NC2CCC(CN3CCC(c4c[nH]c5ccccc45)CC3)CC2)cc(Cl)n1 (stereo not given),690
6,CN(C)CCOc1ccc(/C(=C(/CCCn2ccnc2)c2ccccc2)c2ccc(O)cc2)cc1,770
7,Cc1ccc(CNC(=O)[C@H](CCCN)Nc2nc(Nc3ccccc3)ncc2C)cc1,1530
8,O=C(CNC1=NCCN1)Nc1ccc(NC(=O)Nc2ccc(NC(=O)CNC3=NCCN3)cc2)cc1,780
9,Fc1ccc2nc(-c3ccc(-c4ccc(CNCc5ccccc5)cc4)cc3)[nH]c2c1,280
10,CC(C)[C@H](NCC(=O)c1ccccc1)C(=O)O,780
11,COc1ccc2nccc([C@@H](O)CN3CCC(NC/C=C/c4cccnc4)CC3)c2c1,620
12,COc1cc2c(cc1OC)C(C(=O)Nc1ccc(C(F)(F)F)cc1)C(c1cccs1)N(C)C2=O (stereo not given),160
13,COc1ccc(N2CCN(CCCCNC(=O)c3ccc(NC(=O)c4ccc(Cl)c(Cl)c4)cc3)CC2)c(OC)c1,210
14,OCCNc1nc(Nc2cccc(O)c2)nc2ccccc12,390
15,CCCC(C)NC(=O)/C=C/c1ccccc1-c1cccc(OC)c1 (stereo not given),1250
16,CCCCSc1ccc(CNCCCCCCNCc2ccc(SCCCC)c3ccccc23)c2ccccc12,630
17,COc1ccc(-c2cccc(NC(=O)c3ccccc3)c2)cc1CN1CCCN(C)CC1,730
18,O=C(NCCN1CCCC1)N1CCCN(c2ncnc3cc(-c4ccc(Cl)cc4)sc23)CC1,920
19,c1ccc(Oc2ccc(Nc3ccnc4cc(-c5ccc(CN6CCOCC6)o5)ccc34)cc2)nc1,910
20,CCOc1c(OC)ccc2c1CCN(CCN1CCC(CNC(=O)c3ccc(-c4ccc(C(F)(F)F)cc4)cc3)CC1)C2,850
21,CCNc1cc(C(=O)N[C@@H](Cc2ccc(F)c(F)c2)[C@H](O)CNCc2cccc(OC)c2)cc(N2CCCCS2(=O)=O)c1,750
22,O=C(COc1ccccc1)Nn1cnc2ccccc21,1050
23,CN(C)CCC1CCN(CCS(=O)(=O)c2cccc(Nc3ccc(-c4cccc(F)c4)cn3)c2)CC1,1070
24,Cc1ccc2nc(C)cc(NN=Cc3ccc(Cl)cc3)c2c1,990
25,Oc1ccc2ccccc2c1CNCCC1CCCCC1,170
